# Measured values reported in ChEMBL document CHEMBL5055626 (J Med Chem, 2021).
# The source made the active and inactive calls. The calls are words filed in the database; no cut-off is given here. Where a SMILES comes first, the peptide text is derived from it. Bridges are numbered along the chain shown (N, C = ends). [ ]: non-standard residue; d: D form. sY = N[C@@H](Cc1ccc(OS(=O)(=O)O)cc1)C(=O)O
# Legend:
# [1] = Antagonist activity at rat nAChR alpha7 Q141H mutant expressed in xenopus oocytes assessed as inhibition of Ach- induced response at -70 mV holding potential preincubated for 5 mins followed by Ach stimulation by voltage-clamp based electrophysiological method; format: cell-based; details: Oocyte
# [2] = target: Neuronal acetylcholine receptor subunit alpha-7 (Homo sapiens, UniProt P36544); format: cell-based, Oocyte
# [3] = target: Neuronal acetylcholine receptor subunit alpha-7 (Rattus norvegicus, UniProt Q05941); assay: Antagonist activity at rat alpha7 nAChR expressed in xenopus oocytes assessed as inhibition of Ach- induced response at -70 mV holding potential preincubated for 5 mins followed by Ach stimulation by voltage-clamp based electrophysiological method; format: cell-based, Oocyte
# Neuronal acetylcholine receptor subunit alpha-7 (Rattus norvegicus, UniProt Q05941), sequence (Q05941 whole entry): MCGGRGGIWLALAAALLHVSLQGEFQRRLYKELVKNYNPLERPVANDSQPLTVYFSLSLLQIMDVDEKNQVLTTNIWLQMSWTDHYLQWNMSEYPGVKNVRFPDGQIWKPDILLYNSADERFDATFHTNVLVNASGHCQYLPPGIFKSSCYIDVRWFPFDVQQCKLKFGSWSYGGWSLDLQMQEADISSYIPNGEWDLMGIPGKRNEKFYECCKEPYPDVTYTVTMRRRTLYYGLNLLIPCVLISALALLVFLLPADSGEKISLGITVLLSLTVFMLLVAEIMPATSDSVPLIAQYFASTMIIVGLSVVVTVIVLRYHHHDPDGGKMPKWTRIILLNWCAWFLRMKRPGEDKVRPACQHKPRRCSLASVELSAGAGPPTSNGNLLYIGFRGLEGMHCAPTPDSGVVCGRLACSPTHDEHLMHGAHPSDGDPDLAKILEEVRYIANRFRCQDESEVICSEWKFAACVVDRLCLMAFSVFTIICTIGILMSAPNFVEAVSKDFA
# [4] = Antagonist activity at human nAChR alpha7 R186K mutant expressed in xenopus oocytes assessed as inhibition of Ach- induced response at -70 mV holding potential preincubated for 5 mins followed by Ach stimulation by voltage-clamp based electrophysiological method; format: cell-based; details: Oocyte
# [5] = Antagonist activity at human nAChR alpha7 S184N/R186K double mutant expressed in xenopus oocytes assessed as inhibition of Ach- induced response at -70 mV holding potential preincubated for 5 mins followed by Ach stimulation by voltage-clamp based electrophysiological method; format: cell-based; details: Oocyte
# [6] = Antagonist activity at rat nAChR alpha7 K186R mutant expressed in xenopus oocytes assessed as inhibition of Ach- induced response at -70 mV holding potential preincubated for 5 mins followed by Ach stimulation by voltage-clamp based electrophysiological method; format: cell-based; details: Oocyte
# [7] = Antagonist activity at rat nAChR alpha7 N184S mutant expressed in xenopus oocytes assessed as inhibition of Ach- induced response at -70 mV holding potential preincubated for 5 mins followed by Ach stimulation by voltage-clamp based electrophysiological method; format: cell-based; details: Oocyte
# [8] = Antagonist activity at human nAChR alpha7 S184N mutant expressed in xenopus oocytes assessed as inhibition of Ach- induced response at -70 mV holding potential preincubated for 5 mins followed by Ach stimulation by voltage-clamp based electrophysiological method; format: cell-based; details: Oocyte
# [9] = target: Neuronal acetylcholine receptor; alpha3/beta2 (Rattus norvegicus, UniProt P04757+P12390); assay: Antagonist activity at rat alpha3beta2 nAChR expressed in xenopus oocytes assessed as inhibition of Ach- induced response at -70 mV holding potential preincubated for 5 mins followed by Ach stimulation by voltage-clamp based electrophysiological method; format: cell-based, Oocyte
# Neuronal acetylcholine receptor; alpha3/beta2, sequence (P04757 whole entry): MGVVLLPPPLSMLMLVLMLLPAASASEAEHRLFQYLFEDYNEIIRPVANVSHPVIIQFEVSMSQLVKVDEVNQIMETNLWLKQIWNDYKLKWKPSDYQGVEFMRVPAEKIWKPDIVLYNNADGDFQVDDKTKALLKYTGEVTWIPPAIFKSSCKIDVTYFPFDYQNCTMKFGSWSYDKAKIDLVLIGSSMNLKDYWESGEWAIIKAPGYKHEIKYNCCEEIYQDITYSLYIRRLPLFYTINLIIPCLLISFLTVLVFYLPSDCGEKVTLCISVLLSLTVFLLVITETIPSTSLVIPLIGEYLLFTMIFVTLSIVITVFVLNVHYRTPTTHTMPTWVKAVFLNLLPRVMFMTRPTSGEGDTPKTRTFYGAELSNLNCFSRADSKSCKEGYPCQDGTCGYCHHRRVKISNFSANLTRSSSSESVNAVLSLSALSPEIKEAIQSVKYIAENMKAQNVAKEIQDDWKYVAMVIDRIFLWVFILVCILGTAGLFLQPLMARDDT
# Neuronal acetylcholine receptor; alpha3/beta2, sequence (P12390 whole entry): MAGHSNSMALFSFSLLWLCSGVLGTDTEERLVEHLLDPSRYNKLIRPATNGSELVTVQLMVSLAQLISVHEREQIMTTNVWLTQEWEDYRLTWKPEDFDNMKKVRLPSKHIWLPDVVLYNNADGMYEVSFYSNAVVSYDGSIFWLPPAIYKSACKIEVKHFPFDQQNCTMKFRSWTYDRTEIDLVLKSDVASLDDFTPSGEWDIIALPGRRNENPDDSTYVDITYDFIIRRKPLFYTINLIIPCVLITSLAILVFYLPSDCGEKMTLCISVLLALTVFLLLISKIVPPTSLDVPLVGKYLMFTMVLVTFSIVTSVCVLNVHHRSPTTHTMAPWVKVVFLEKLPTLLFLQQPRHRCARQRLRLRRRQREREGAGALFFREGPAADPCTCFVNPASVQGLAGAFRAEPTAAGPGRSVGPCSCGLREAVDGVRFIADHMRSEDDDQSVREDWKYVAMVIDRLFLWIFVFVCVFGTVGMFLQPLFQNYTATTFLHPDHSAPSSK
# [10] = target: Neuronal acetylcholine receptor; alpha4/beta4 (Rattus norvegicus) (UniProt P09483+P12392); assay: Antagonist activity at rat alpha4beta4 nAChR expressed in xenopus oocytes assessed as inhibition of Ach- induced response at 10 uM at -70 mV holding potential preincubated for 5 mins followed by Ach stimulation by voltage-clamp based electrophysiological method; format: cell-based; details: Oocyte
# [11] = target: Neuronal acetylcholine receptor; alpha2/beta2 (Rattus norvegicus) (UniProt P12389+P12390); assay: Antagonist activity at rat alpha2beta2 nAChR expressed in xenopus oocytes assessed as inhibition of Ach- induced response at 10 uM at -70 mV holding potential preincubated for 5 mins followed by Ach stimulation by voltage-clamp based electrophysiological method; format: cell-based; details: Oocyte
# [12] = target: Neuronal acetylcholine receptor; alpha3/beta4 (Rattus norvegicus) (UniProt P04757+P12392); assay: Antagonist activity at rat alpha3beta4 nAChR expressed in xenopus oocytes assessed as inhibition of Ach- induced response at 10 uM at -70 mV holding potential preincubated for 5 mins followed by Ach stimulation by voltage-clamp based electrophysiological method; format: cell-based; details: Oocyte
# [13] = target: Neuronal acetylcholine receptor; alpha2/beta4 (Rattus norvegicus, UniProt P12389+P12392); assay: Antagonist activity at rat alpha2beta4 nAChR expressed in xenopus oocytes assessed as inhibition of Ach- induced response at -70 mV holding potential preincubated for 5 mins followed by Ach stimulation by voltage-clamp based electrophysiological method; format: cell-based, Oocyte
# [14] = target: Neuronal acetylcholine receptor; alpha3/beta4 (Rattus norvegicus, UniProt P04757+P12392); assay: Antagonist activity at rat alpha3beta4 nAChR expressed in xenopus oocytes assessed as inhibition of Ach- induced response at -70 mV holding potential preincubated for 5 mins followed by Ach stimulation by voltage-clamp based electrophysiological method; format: cell-based, Oocyte
# [15] = target: Neuronal acetylcholine receptor; alpha4/beta2 (Rattus norvegicus, UniProt P09483+P12390); assay: Antagonist activity at rat alpha4beta2 nAChR expressed in xenopus oocytes assessed as inhibition of Ach- induced response at -70 mV holding potential preincubated for 5 mins followed by Ach stimulation by voltage-clamp based electrophysiological method; format: cell-based, Oocyte
# Neuronal acetylcholine receptor; alpha4/beta2, sequence (P09483 whole entry): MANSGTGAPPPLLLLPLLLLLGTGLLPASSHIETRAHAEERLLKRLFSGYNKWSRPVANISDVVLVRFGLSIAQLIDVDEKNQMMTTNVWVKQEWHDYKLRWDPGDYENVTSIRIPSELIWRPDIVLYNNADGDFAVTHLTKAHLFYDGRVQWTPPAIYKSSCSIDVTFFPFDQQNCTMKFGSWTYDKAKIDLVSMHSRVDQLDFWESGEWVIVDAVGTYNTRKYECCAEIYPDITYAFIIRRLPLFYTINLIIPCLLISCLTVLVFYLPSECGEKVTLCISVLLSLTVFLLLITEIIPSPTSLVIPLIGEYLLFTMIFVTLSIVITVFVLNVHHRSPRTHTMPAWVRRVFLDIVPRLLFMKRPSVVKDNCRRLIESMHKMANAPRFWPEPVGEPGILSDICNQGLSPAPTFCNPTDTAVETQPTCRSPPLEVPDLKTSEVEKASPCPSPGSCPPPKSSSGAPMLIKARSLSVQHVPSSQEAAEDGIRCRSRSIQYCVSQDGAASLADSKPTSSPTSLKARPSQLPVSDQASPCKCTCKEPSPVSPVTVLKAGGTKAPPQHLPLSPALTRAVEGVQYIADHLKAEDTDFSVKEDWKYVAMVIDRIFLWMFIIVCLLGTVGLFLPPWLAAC
# Neuronal acetylcholine receptor; alpha4/beta2, sequence (P12390 whole entry): as the sequence (P12390 whole entry) above
# [16] = target: Nicotinic acetylcholine receptor alpha9/alpha10 (Rattus norvegicus) (UniProt P43144+Q9JLB5); assay: Antagonist activity at rat alpha9alpha10 nAChR expressed in xenopus oocytes assessed as inhibition of Ach- induced response at 10 uM at -70 mV holding potential preincubated for 5 mins followed by Ach stimulation by voltage-clamp based electrophysiological method; format: cell-based; details: Oocyte
# [17] = target: Nicotinic acetylcholine receptor alpha9/alpha10 (Rattus norvegicus, UniProt P43144+Q9JLB5); assay: Antagonist activity at rat alpha9alpha10 nAChR expressed in xenopus oocytes assessed as inhibition of Ach- induced response at -70 mV holding potential preincubated for 5 mins followed by Ach stimulation by voltage-clamp based electrophysiological method; format: cell-based, Oocyte
# Nicotinic acetylcholine receptor alpha9/alpha10, sequence (P43144 whole entry): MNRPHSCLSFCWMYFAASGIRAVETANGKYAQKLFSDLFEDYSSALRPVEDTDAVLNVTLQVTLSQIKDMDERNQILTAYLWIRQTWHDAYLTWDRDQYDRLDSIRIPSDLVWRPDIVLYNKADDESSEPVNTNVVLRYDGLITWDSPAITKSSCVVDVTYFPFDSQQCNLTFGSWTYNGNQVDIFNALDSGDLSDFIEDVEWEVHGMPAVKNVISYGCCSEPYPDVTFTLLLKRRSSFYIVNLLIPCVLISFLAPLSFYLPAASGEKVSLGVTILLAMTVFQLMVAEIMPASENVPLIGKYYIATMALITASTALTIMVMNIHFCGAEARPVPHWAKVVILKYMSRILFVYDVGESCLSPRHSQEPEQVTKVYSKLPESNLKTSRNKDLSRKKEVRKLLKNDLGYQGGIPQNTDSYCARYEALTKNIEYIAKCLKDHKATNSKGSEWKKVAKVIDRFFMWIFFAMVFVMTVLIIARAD
# Nicotinic acetylcholine receptor alpha9/alpha10, sequence (Q9JLB5 whole entry): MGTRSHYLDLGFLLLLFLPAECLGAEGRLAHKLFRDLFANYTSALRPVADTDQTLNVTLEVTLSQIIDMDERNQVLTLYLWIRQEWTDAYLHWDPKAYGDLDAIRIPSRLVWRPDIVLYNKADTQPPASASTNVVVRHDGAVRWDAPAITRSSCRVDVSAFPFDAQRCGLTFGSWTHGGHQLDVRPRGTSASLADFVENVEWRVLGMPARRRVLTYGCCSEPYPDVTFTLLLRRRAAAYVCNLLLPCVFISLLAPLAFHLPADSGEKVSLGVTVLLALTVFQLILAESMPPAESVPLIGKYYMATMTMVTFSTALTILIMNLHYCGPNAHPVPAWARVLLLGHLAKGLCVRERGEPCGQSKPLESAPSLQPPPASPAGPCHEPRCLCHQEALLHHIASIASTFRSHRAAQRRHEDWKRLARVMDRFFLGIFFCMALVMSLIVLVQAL
# [18] = target: Nicotinic acetylcholine receptor alpha6/alpha3/beta4 (Homo sapiens, UniProt P30926+P32297+Q15825); assay: Antagonist activity at rat alpha6/alpha3beta4 nAChR expressed in xenopus oocytes assessed as inhibition of Ach- induced response at -70 mV holding potential preincubated for 5 mins followed by Ach stimulation by voltage-clamp based electrophysiological method; format: cell-based, Oocyte
# [19] = target: Neuronal acetylcholine receptor; alpha2/beta2 (Rattus norvegicus, UniProt P12389+P12390); assay: Antagonist activity at rat alpha2beta2 nAChR expressed in xenopus oocytes assessed as inhibition of Ach- induced response at -70 mV holding potential preincubated for 5 mins followed by Ach stimulation by voltage-clamp based electrophysiological method; format: cell-based, Oocyte
# [20] = target: Neuronal acetylcholine receptor; alpha2/beta4 (Rattus norvegicus) (UniProt P12389+P12392); assay: Antagonist activity at rat alpha2beta4 nAChR expressed in xenopus oocytes assessed as inhibition of Ach- induced response at 10 uM at -70 mV holding potential preincubated for 5 mins followed by Ach stimulation by voltage-clamp based electrophysiological method; format: cell-based; details: Oocyte
# [21] = Antagonist activity at rat alpha6/ alpha3beta2beta3 nAChR expressed in xenopus oocytes assessed as inhibition of Ach- induced response at -70 mV holding potential preincubated for 5 mins followed by Ach stimulation by voltage-clamp based electrophysiological method; format: cell-based; details: Oocyte
# [22] = target: Neuronal acetylcholine receptor; alpha4/beta4 (Rattus norvegicus, UniProt P09483+P12392); assay: Antagonist activity at rat alpha4beta4 nAChR expressed in xenopus oocytes assessed as inhibition of Ach- induced response at -70 mV holding potential preincubated for 5 mins followed by Ach stimulation by voltage-clamp based electrophysiological method; format: cell-based, Oocyte
# Neuronal acetylcholine receptor; alpha4/beta4, sequence (P09483 whole entry): as the sequence (P09483 whole entry) above
# Neuronal acetylcholine receptor; alpha4/beta4, sequence (P12392 whole entry): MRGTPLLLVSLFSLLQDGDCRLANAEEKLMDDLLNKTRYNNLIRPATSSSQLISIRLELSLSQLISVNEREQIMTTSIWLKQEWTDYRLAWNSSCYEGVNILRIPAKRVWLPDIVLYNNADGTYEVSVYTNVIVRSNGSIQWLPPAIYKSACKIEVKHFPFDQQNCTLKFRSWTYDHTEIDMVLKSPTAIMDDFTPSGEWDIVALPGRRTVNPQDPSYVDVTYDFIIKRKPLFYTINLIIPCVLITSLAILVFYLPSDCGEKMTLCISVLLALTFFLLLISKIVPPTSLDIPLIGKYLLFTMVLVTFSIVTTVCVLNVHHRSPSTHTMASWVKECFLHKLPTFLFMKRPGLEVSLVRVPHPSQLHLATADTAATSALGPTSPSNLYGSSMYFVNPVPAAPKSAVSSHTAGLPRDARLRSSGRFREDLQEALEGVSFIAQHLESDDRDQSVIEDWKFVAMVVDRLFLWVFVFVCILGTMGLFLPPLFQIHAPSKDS
# [23] = target: Neuronal acetylcholine receptor; alpha4/beta2 (Rattus norvegicus) (UniProt P09483+P12390); assay: Antagonist activity at rat alpha4beta2 nAChR expressed in xenopus oocytes assessed as inhibition of Ach- induced response at 10 uM at -70 mV holding potential preincubated for 5 mins followed by Ach stimulation by voltage-clamp based electrophysiological method; format: cell-based; details: Oocyte
compound,measurement,setting,value
"CC[C@H](C)[C@@H]1NC(=O)[C@H](Cc2cnc[nH]2)NC(=O)[C@@H]2CCCN2C(=O)[C@H](CC(N)=O)NC(=O)[C@H](CC(N)=O)NC(=O)[C@H](C(C)C)NC(=O)[C@H](CC(N)=O)NC(=O)[C@@H]2CSSC[C@H](NC(=O)CN)C(=O)N[C@@H](CSSC[C@@H](C(=O)O)NC1=O)C(=O)N[C@@H](CO)C(=O)N[C@@H](CC(=O)O)C(=O)N1CCC[C@H]1C(=O)N[C@@H](C)C(=O)N2 (H-GCCSDPACNVNNPHIC-OH; disulfide 2-8, 3-16)",IC50,[1],0.12 µM
same,IC50,[2],13.7 µM
same,IC50,[3],0.1 µM
same,IC50,[4],0.2 µM
same,IC50,[5],0.099 µM
same,IC50,[6],7.48 µM
same,IC50,[7],0.13 µM
same,IC50,[8],7.14 µM
"C[C@@H]1NC(=O)[C@@H]2CSSC[C@H](NC(=O)[C@@H](N)CCC(N)=O)C(=O)N[C@@H](CSSC[C@@H](C(N)=O)NC(=O)[C@H](Cc3cnc[nH]3)NC(=O)[C@H](CCC(=O)O)NC(=O)[C@H](Cc3cnc[nH]3)NC1=O)C(=O)N[C@@H](CO)C(=O)N[C@@H](CC(N)=O)C(=O)N1CCC[C@H]1C(=O)N1CCC[C@H]1C(=O)N2 (H-QCCSNPPCAHEHC-NH2; disulfide 2-8, 3-13)",IC50,[9],1.56 µM
same,inhibition,[10],inactive
same,inhibition,[11],inactive
same,inhibition,[12],inactive
same,IC50,[13],> 10 µM
same,IC50,[14],> 10 µM
same,IC50,[3],0.47 µM
same,IC50,[15],> 10 µM
same,inhibition,[16],inactive
same,IC50,[17],> 10 µM
same,IC50,[18],> 10 µM
same,IC50,[19],> 10 µM
same,inhibition,[20],inactive
same,IC50,[21],0.55 µM
same,IC50,[22],> 10 µM
same,inhibition,[23],inactive
"CC(C)C[C@@H]1NC(=O)[C@H](CC(=O)O)NC(=O)[C@@H]2CCCN2C(=O)[C@H](Cc2cnc[nH]2)NC(=O)[C@H](C)NC(=O)[C@H](CC(N)=O)NC(=O)[C@H](CCCNC(=N)N)NC(=O)[C@@H]2CSSC[C@H](NC(=O)CN)C(=O)N[C@@H](CSSC[C@@H](C(=O)O)NC1=O)C(=O)N[C@@H](CO)C(=O)N[C@@H](CC(=O)O)C(=O)N1CCC[C@H]1C(=O)N1CCC[C@H]1C(=O)N2 (H-GCCSDPPCRNAHPDLC-OH; disulfide 2-8, 3-16)",IC50,[1],0.28 µM
same,IC50,[2],> 10 µM
same,IC50,[3],0.2 µM
same,IC50,[4],1.58 µM
same,IC50,[5],0.28 µM
same,IC50,[6],> 10 µM
same,IC50,[7],3.29 µM
same,IC50,[8],> 10 µM
CC[C@H](C)[C@H](N)C(=O)N[C@@H](CCCNC(=N)N)C(=O)N[C@@H](CC(=O)O)C(=O)N[C@@H](CCC(=O)O)C(=O)N[C@H]1CSSC[C@H]2NC(=O)[C@H](C)NC(=O)[C@@H]3CCCN3C(=O)[C@H](CC(N)=O)NC(=O)[C@H](CO)NC(=O)[C@H](CSSC[C@@H](C(=O)N[C@@H](CCCNC(=N)N)C(=O)N[C@@H](CCCNC(=N)N)C(=O)N[C@@H](CCCNC(=N)N)C(=O)O)NC(=O)[C@H](C(C)C)NC(=O)[C@H](Cc3cnc[nH]3)NC(=O)[C@@H]3CCCN3C(=O)[C@H](CC(N)=O)NC(=O)[C@H](CC(N)=O)NC(=O)[C@H](C(C)C)NC(=O)[C@H](CCCNC(=N)N)NC2=O)NC1=O,IC50,[9],0.018 µM
C[C@@H]1NC(=O)[C@H](C)NC(=O)[C@@H]2CSSC[C@H](NC(=O)CNC(=O)CN)C(=O)N[C@@H](CSSC[C@@H](C(N)=O)NC(=O)[C@H](Cc3ccc(OS(=O)(=O)O)cc3)NC(=O)[C@H](CC(=O)O)NC(=O)[C@H](CCC(N)=O)NC(=O)[C@H](CC(N)=O)NC(=O)[C@H](CC(N)=O)NC1=O)C(=O)N[C@@H](CO)C(=O)N[C@@H](Cc1cnc[nH]1)C(=O)N1CCC[C@H]1C(=O)N[C@@H](C)C(=O)N2,IC50,[9],0.00028 µM
"CSCC[C@@H]1NC(=O)[C@H](CC(N)=O)NC(=O)[C@@H]2CSSC[C@H](NC(=O)CN)C(=O)N[C@@H](CSSC[C@@H](C(=O)O)NC(=O)[C@H](Cc3ccc(OS(=O)(=O)O)cc3)NC(=O)[C@H](CC(=O)O)NC(=O)[C@@H]3CCCN3C(=O)[C@H](CC(N)=O)NC(=O)[C@H](CC(N)=O)NC1=O)C(=O)N[C@@H](CO)C(=O)N[C@@H](CC(=O)O)C(=O)N1CCC[C@H]1C(=O)N[C@@H](CCCNC(=N)N)C(=O)N2 (H-GCCSDPRCNMNNPD[sY]C-OH; disulfide 2-8, 3-16)",IC50,[3],0.03 µM
"C[C@@H]1NC(=O)[C@@H]2CSSC[C@H](NC(=O)CN)C(=O)N[C@@H](CSSC[C@@H](C(=O)N[C@@H](CCCNC(=N)N)C(=O)O)NC(=O)[C@H](Cc3cnc[nH]3)NC(=O)[C@H](CCC(=O)O)NC(=O)[C@H](Cc3cnc[nH]3)NC1=O)C(=O)N[C@@H](CO)C(=O)N[C@@H](CC(N)=O)C(=O)N1CCC[C@H]1C(=O)N1CCC[C@H]1C(=O)N2 (H-GCCSNPPCAHEHCR-OH; disulfide 2-8, 3-13)",IC50,[9],> 10 µM
same,inhibition,[10],inactive
same,inhibition,[11],inactive
same,inhibition,[12],inactive
same,IC50,[13],> 10 µM
same,IC50,[14],> 10 µM
same,IC50,[3],1.1 µM
same,IC50,[15],> 10 µM
same,inhibition,[16],inactive
same,IC50,[17],> 10 µM
same,IC50,[18],> 10 µM
same,IC50,[19],> 10 µM
same,inhibition,[20],inactive
same,IC50,[21],0.63 µM
same,IC50,[22],> 10 µM
same,inhibition,[23],inactive
